These results are taken from paper PMC11836371, “Virtual fragment screening for DNA repair inhibitors in vast chemical space” (Nature Communications, 2025).

The subject of one series is HCT116 cells. Put plainly: Cancer cell viability assay (resazurin), HCT116. It is filed as cell-based. The conditions noted are these: two independent experiments; for percentage cell viability: HCT116, 100 μM, 100 µM; for viability at 100 µM: Homo sapiens, HCT-116, HCT116, 100 μM, read-out: percentage cell viability. Here is the method:
(§1) Three different cancer cell lines A2780 (ovarian cancer, ECACC 93112519), A549 (lung cancer, ATCC 60150896) and HCT116 (colon cancer, ATCC CCL-247), and one immortalized fibroblast cell line (BJhTERT) as control, were seeded in black/clear 384-well plates (Corning #3764), 50 µL/well, containing 11 concentrations, nano-dispensed, dose-response curves of the test compounds. A2780, HCT116, and HEK293T cell lines were authenticated with STR profiling, frozen down, and these stocks were used in experiments. The A2780 cells were cultured in RPMI 1640, the A549 and BJhTERT cells in DMEM, and the HCT116 cells in McCoys 5 A medium. All media were supplemented with 10% FBS and 1% P/S. All cell culture media, additives, and reagents were purchased from Thermo Fisher Scientific. The cell plates were incubated 72 hours in a humidified incubator at 37 °C with 5% CO2, after which resazurin (Sigma-Aldrich), 10 µL/well, was added to a final concentration of 10 µg/mL. The plates were incubated for 6 hours with resazurin followed by fluorescence readings in a Sense plate reader (Hidex), resorufin protocol (ex 544 nm/em 595 nm). The cell viability was calculated compared to untreated control wells and the EC50 values were determined in XLfit (IDBS).
Background: Resazurin is reduced to fluorescent resorufin, in cell work by metabolically active cells.

Another series concerns A549 cells. Put plainly: Cancer cell viability assay (resazurin), A549. In kind it is cell-based. The note with it: two independent experiments; for percentage cell viability: A549, 100 μM, 100 µM; for viability at 100 µM: Homo sapiens, A549, A549, 100 μM, read-out: percentage cell viability. The method, then:
as §1

Series [1] concerns NF-κB activation in HEK293T pGF NF-κB cells. Put plainly: TNF-α induced NF-κB activation assay. It is filed as cell-based. The conditions noted are these: Homo sapiens, HEK-293T; NFκB activation assay; ± SD; read-out: pEC50 (converted). Here is the method: The inhibition of TNF-α induced NF-κB activation was measured in HEK293T cells transfected with the pGreenfire NF-κB plasmid. This is a plasmid that has NF-κB response elements (TRE) coupled to GFP and luciferase expression. When the NF-κB is activated by TNF-α, it binds to the TRE and induces GFP expression, and the fluorescence can be measured in a plate reader. The cells were authenticated with STR profiling, frozen down and these stocks were used in experiments. The HEK293T pGF NF-κB cells were kept in DMEM with 5% FBS and 1% P/S but, when seeded for the assay the medium was changed to DMEM FluoroBrite with 1% dialyzed FBS. All cell culture reagents were purchased from Thermo Fisher Scientific. Compounds were nano-dispensed (Echo acoustic dispenser) in 96-well, black/clear, assay plates (Corning #3904), duplicate plates, in 8-points dose-response curves, 1:2 dilutions, with DMSO compensation (0.3% DMSO). Cells were seeded at 30000 cells/well in medium containing 10 ng/mL of TNF-α (Sigma-Aldrich), except negative control wells which only contained cells in medium. Cells were cultured for 24 hours in a humidified incubator at 37 °C with 5% CO2 after which the GFP fluorescence was measured in a Sense plate reader (Hidex) with ex485/em535. The RFU data from the duplicate plates were combined to calculate % inhibition of NF-κB activation and IC50-values were calculated using XLfit (IDBS). In parallel with the NF-κB assay, a CellTiterGlo (Promega) cell viability assay was run to exclude compounds affecting cell viability. Compounds were nano-dispensed (Echo acoustic dispenser) in assay plates in 11-points dose-response curves, 1:3 dilutions, without DMSO compensation, with duplicates on the same plate. Cells were seeded at 7500 cells/well in 25 µL medium (DMEM FluoroBrite with 1% dialyzed FBS) containing 10 ng/mL TNF-α and cultured for 24 hours, with column 24 containing only culture medium. After equilibration to room temperature, the CellTiterGlo reagents were mixed and 25 µL/well were added to the cell plate. After 2 min mixing of the plate on an orbital shaker, the plate was incubated for 10 min at room temperature followed by luminescence reading in Sense. The cell viability was calculated compared to untreated control wells and the EC50 values were determined in XLfit (IDBS). […]

A further series deals with A2780 cells. Nature of the series: Cancer cell viability assay (resazurin), A2780. The conditions noted are these: two independent experiments; for percentage cell viability: A2780, 100 μM, 100 µM; for viability at 100 µM: Homo sapiens, A2780, A2780, 100 μM, read-out: percentage cell viability. It is filed as cell-based. The method, then:
as §1

Series [2] concerns the target T1, human OGG1 enzyme (Homo sapiens, UniProt O15527). Nature of the series: Differential scanning fluorimetry (DSF) thermal shift assay. In kind it is binding. The conditions noted are these: 99 μM. Here is the method:
The temperature was increased from 20 °C to 85 °C with 10 readings/degree. Tm values were calculated using an excel template and fitting to the Boltzmann equation in Prism v.6.07 (GraphPad Software).

Series [3] in a line: Cell viability assay (resazurin), BJhTERT non-transformed control. It is filed as cell-based. The conditions noted are these: human, BJhTERT, 100 μM, two independent experiments; read-out: percentage cell viability. Here is the method:
(§2) A2780, HCT116, and HEK293T cell lines were authenticated with STR profiling, frozen down, and these stocks were used in experiments. […] All media were supplemented with 10% FBS and 1% P/S. All cell culture media, additives, and reagents were purchased from Thermo Fisher Scientific. The cell plates were incubated 72 hours in a humidified incubator at 37 °C with 5% CO2, after which resazurin (Sigma-Aldrich), 10 µL/well, was added to a final concentration of 10 µg/mL. […] The cell viability was calculated compared to untreated control wells and the EC50 values were determined in XLfit (IDBS).

The next series has as its system BJhTERT cells. The description is as above. It is filed as cell-based. The conditions noted are these: BJhTERT, 100 μM, two independent experiments. The method, then: as §2
In series [4] the target is T1, human OGG1 enzyme. Nature of the series: OGG1 glycosylase activity assay (enzyme inhibition, APE1-coupled fluorescence). It is filed as biochemical.
Protocol: “8” signifies 8-oxoA and “FAM” and “Dab” signify fluorescein and dabcyl (TriLink Biotech). Briefly, compounds dissolved in DMSO were dispensed using an Echo 550 (Labcyte), followed by transfer of enzyme and substrate solutions manually with a 16-channel pipette or with a Multidrop (Thermo Scientific). The plates were centrifuged, sealed and incubated at room temperature overnight (15 h) and read the following morning in an Hidex Sense plate reader (Hidex Oy) using a 485-nm filter with a bandwidth of 10 nm for excitation and a 535-nm filter with a bandwidth of 20 nm for emission.
The target in a further series is MTH1 (Homo sapiens, UniProt P36639). Nature of the series: biochemical.
The mark [5] stands for this setting: Figure 3B source data, three independent experiments, read-out: IC50 OGG1.
Setting [6] is: Table S5, ± SD, read-out: pIC50 (converted).

Broadly, the viability is a read-out of living cells in per cent, often relative to untreated cells.

Structures are written as SMILES. Values joined by “and” are separate entries in the source; they are usually repeats but may differ in a detail not shown here. Identical values can stand only once. Like-named read-outs stand apart in the source and are kept apart here.

T1 sequence (O15527 whole entry): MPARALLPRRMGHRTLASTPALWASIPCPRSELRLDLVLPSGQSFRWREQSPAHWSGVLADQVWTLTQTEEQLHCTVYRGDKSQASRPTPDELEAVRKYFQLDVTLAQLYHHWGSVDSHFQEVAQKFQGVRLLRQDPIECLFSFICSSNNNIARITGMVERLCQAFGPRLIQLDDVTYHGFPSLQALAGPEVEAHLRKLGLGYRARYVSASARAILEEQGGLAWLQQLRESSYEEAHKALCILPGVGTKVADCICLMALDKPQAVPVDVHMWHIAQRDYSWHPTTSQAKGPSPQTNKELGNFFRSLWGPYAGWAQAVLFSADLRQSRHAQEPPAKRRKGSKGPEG
Protocol for MTH1: Inhibition of the following enzymes was assessed in the selectivity assays: apurinic/apyrimidinic endonuclease (APE1), endonuclease 8-like 1 (NEIL1), oxidized purine nucleoside triphosphate hydrolase (MTH1) and single-strand selective monofunctional uracil DNA glycosylase (SMUG1). BER enzymes were assayed with a similar strategy as OGG1, using identical DNA sequences surrounding the substrate lesion and the same reaction buffer containing 2 nM APE1. To assess SMUG1 inhibition, a 375 nM substrate containing uracil opposite guanine and 0.3 U SMUG1 enzyme (M0336 from New England Biolabs) was used. To assess NEIL1 inhibition, a 20 nM substrate containing thymidine glycol opposite adenine and 10 nM NEIL1 was used. To assess APE1 inhibition, an UNG2 substrate was pre-treated with E. coli Uracil-DNA glycosylase (New England Biolabs M0280) to generate an AP-site opposite adenine, which was used at 10 nM concentration in the presence of 0.1 nM APE1. All BER inhibition assays were in the linear range and less than 40% of the total substrate had been consumed at readout. The experiments were performed in three independent replicates and the percentage inhibition was calculated relative to the signal of a DMSO-treated control. To assess MTH1 inhibition, MTH1-catalyzed dGTP hydrolysis was coupled to inorganic pyrophosphatase (PPase), thereby releasing inorganic phosphate. The produced free phosphate was then detected using the malachite green assay[76]. […] Substrate concentration at the Km value for the respective substrate was chosen if possible. Inhibition using 100 μM compound was tested in reaction buffer (100 mM Tris-Acetate pH 8.0, 10 mM magnesium acetate, 40 mM NaCl, 1 mM DTT, and 0.005% Tween-20). Samples were incubated with shaking at 22 °C for 15 minutes. The reaction was then stopped by the addition of the malachite green reagent[76]. Absorbance was read at 630 nm using a Hidex Sense plate reader after a period of incubation with the methylene green reagent of 15 minutes. The experiment was performed in three independent replicates and percentage inhibition was calculated relative to the signal of a DMSO-treated control.

As for `Cc1cc(C2CC2)n(-c2ccc(CC(=O)Nc3noc4c3CCCC4)cc2)n1` [compound 9], the percentage cell viability with HCT116 cells was found to be 86.44%; in the series on A549 cells it was 68.3%; in the series with A2780 cells it was 25.03%; in the series on BJhTERT cells, 80.1%. Further, the viability at 100 µM in the series on HCT116 cells was 81.6%; in the series with A549 cells, 68.1%; in the series with A2780 cells, 21.5%. The EC50 in series [1] was 9.12 µM. Besides, the “∆Tm (K)” value at human OGG1 enzyme [2] worked out at 6.6 ± 0.6 K. The viability at 72 h, 100 µM in [3] came to 73%. Moreover, the IC50 on human OGG1 enzyme [4] (setting [5]) is 6.28 µM and 6.2 µM and 6.46 µM; on human OGG1 enzyme [4] (setting [6]), 3.72 µM.
Consider `Cc1nn(-c2ccc(CC(=O)Nc3noc4c3CCCC4)cc2)c2ccccc12` [compound 10], for which the percentage cell viability in the series with HCT116 cells amounted to 2.45%; with A549 cells, 6.63%; in the series with A2780 cells, 1.45%; in the series with BJhTERT cells it was 8.77%. The viability at 100 µM in the series on HCT116 cells is 2%; with A549 cells, 5.97%; in the series on A2780 cells, 0.84%. Besides, in [1], the EC50 was 6.61 µM. For the same compound, the “∆Tm (K)” value at human OGG1 enzyme [2] turned out to be 4.8 ± 0.4 K. For the same compound, in [3], the viability at 72 h, 100 µM was 8.08%. Further, the IC50 on human OGG1 enzyme [4] (setting [6]) was 1.29 µM.
In the case of `O=C(Cc1ccc(-n2nc(Cl)c3ccccc32)cc1)Nc1noc2c1CCCC2` [compound 12], the percentage cell viability in the series on HCT116 cells was 2.49%; with A549 cells it was 10.09%; in the series on A2780 cells, 0.88%; in the series with BJhTERT cells it was 28.88%. Also, the viability at 100 µM was 3.25% with HCT116 cells, 12.3% with A549 cells and 1.08% in the series on A2780 cells. Besides, the EC50 in [1] was 5.5 µM. In addition, at human OGG1 enzyme [2], the “∆Tm (K)” value is recorded as 2.3 K. Also, in [3], the viability at 72 h, 100 µM came to 30.1%. For the same compound, on human OGG1 enzyme [4] (setting [6]), the IC50 is 10.5 µM.
On to `Cc1nc(-c2ccc(CC(=O)Nc3noc4c3CCCC4)cc2F)c(C)[nH]1` [compound 18], for which the percentage cell viability in the series with HCT116 cells is on record as 53.92%; in the series with A549 cells, 56.99%; with A2780 cells, 4.22%; in the series with BJhTERT cells, 41.01%. The figures for the viability at 100 µM in the series with HCT116 cells, in the series on A549 cells and in the series on A2780 cells were 45.2%, 53.3% and 3.84%, respectively. Further, the EC50 in [1] was 11.7 µM. In addition, the “∆Tm (K)” value on human OGG1 enzyme [2] stood at 7.8 K. Besides, the viability at 72 h, 100 µM in series [3] was found to be 38.1%. The IC50 against MTH1 was 18.4 µM and 20 µM and 18.5 µM; at human OGG1 enzyme [4] (setting [5]) it was 0.589 µM and 0.638 µM and 0.615 µM; on human OGG1 enzyme [4] (setting [6]), 0.832 µM.
With `Cc1nc(-c2ccc(CC(=O)Nc3noc4c3CCCC4)c(F)c2)c(C)[nH]1` [compound 20], the percentage cell viability with HCT116 cells is recorded as 15.72%; with A549 cells, 35.78%; with A2780 cells, 2.93%; in the series with BJhTERT cells it was 24.23%. Further, the figures for the viability at 100 µM with HCT116 cells, in the series on A549 cells and with A2780 cells were 13%, 35% and 2.84%, respectively. In series [1], the EC50 was 20.4 µM. For the same compound, the “∆Tm (K)” value on human OGG1 enzyme [2] is listed as 8.6 ± 0.5 K. The viability at 72 h, 100 µM in series [3] was determined as 23.9%. Also, the IC50 at human OGG1 enzyme [4] (setting [6]) is 0.741 µM.
On to `Cc1[nH]c(Br)nc1-c1ccc(CC(=O)Nc2noc3c2CCCC3)cc1` [compound 21], for which the percentage cell viability in the series with HCT116 cells was determined as 47.52%; with A549 cells, 31.92%; in the series on A2780 cells, 6.18%; with BJhTERT cells, 76%. Further, the viability at 100 µM was found to be 38.9% with HCT116 cells, 23.9% in the series on A549 cells and 4.62% in the series with A2780 cells. For the same compound, the EC50 in [1] was 11.5 µM. At human OGG1 enzyme [2], the “∆Tm (K)” value stood at 5.9 K. In series [3], the viability at 72 h, 100 µM was 63.3%. Besides, the IC50 on human OGG1 enzyme [4] (setting [6]) is 2.09 µM.
